Measured values from US20050208496A1, “Methods of testing for bronchial asthma or chronic obstructive pulmonary disease” (Genox Research, Inc., priority 2002, published 2005).

System: respiratory epithelial cells
Conditions: lot 1, Day 7, AI method

## IL-13: human IL-13 (Peprotech, Inc.) added to the medium at 50 ng/mL to stimulate respiratory epithelial cells
  AI700705 (46658_at) expression fold change: 2.4 fold
  AI809925 (53010_at) expression fold change: 3.6 fold
  AI821796 (57694_at) expression fold change: 3 fold
  AI989346 (52327_s_at) expression fold change: 2.7 fold
  AKAP2 (48035_at) expression fold change: 4.4 fold
  AKAP10 (36632_at) expression, fold change upon IL-13 stimulation: 2 fold
  ALOX15 (34636_at) expression, fold change upon IL-13 stimulation: 72.3 fold
  ARHE (35803_at) expression fold change upon IL-13 stimulation: 2.3 fold
  ARL7 (57151_at) expression fold change: 3.1 fold
  AW019985 (48826_s_at) expression fold change: 6.9 fold
  AXL (38433_at) expression, fold change upon IL-13 stimulation: 2.2 fold
  BIG2 (34484_at) expression, fold change upon IL-13 stimulation: 2.2 fold
  BST2 (39061_at) expression, fold change upon IL-13 stimulation: 3 fold
  C1S (40496_at) expression, fold change upon IL-13 stimulation: 4.8 fold
  C21orf11 (58957_at) expression fold change: 2.1 fold
  CCND3 (1795_g_at) expression fold change upon IL-13 stimulation: 2.1 fold
  CDH6 (57421_at) expression fold change: 3.8 fold
  CDH26 (46916_at) expression fold change: 8.6 fold
  CH25H (32363_at) expression, fold change upon IL-13 stimulation: 15.1 fold
  CLDN5 (38995_at) expression, fold change upon IL-13 stimulation: 2.9 fold
  CTSC (133_at) expression, fold change upon IL-13 stimulation: 2.8 fold
  CXCL16 (44095_at) expression fold change: 4 fold
  DBCCR1 (40292_at) expression, fold change upon IL-13 stimulation: 3.1 fold
  DD96 (31610_at) expression, fold change upon IL-13 stimulation: 3.3 fold
  DDIT3 (39420_at) expression, fold change upon IL-13 stimulation: 5.2 fold
  DKFZP564O0823 (41402_at) expression, fold change upon IL-13 stimulation: 3.9 fold
  DKFZP566J091 (57197_at) expression fold change: 11.3 fold
  DNAJA1 (276_at) expression fold change upon IL-13 stimulation: 2.5 fold
  DPP4 (34823_at) expression fold change upon IL-13 stimulation: 3.2 fold
  DPYD (38220_at) expression fold change upon IL-13 stimulation: 2.5 fold
  EMILIN-2 (51628_at) expression fold change: 3.1 fold
  FADS3 (43394_s_at) expression fold change: 4.5 fold
  FETUB (32620_at) expression fold change: 8.4 fold
  FETUB (33101_g_at) expression fold change: 9 fold
  FLJ10261 (43366_at) expression fold change: 10.6 fold
  FLJ10261 (43963_at) expression fold change: 8.7 fold
  FLJ14281 (50209_at) expression fold change: 2.5 fold
  FLJ20420 (46233_at) expression fold change: 2.1 fold
  FLJ22332 (56959_at) expression fold change: 3.4 fold
  G1P3 (1358_s_at) expression, fold change upon IL-13 stimulation: 2.5 fold
  GADD45G (39154_at) expression fold change upon IL-13 stimulation: 4.3 fold
  H11 (56474_at) expression fold change: 2.3 fold
  HLA-F (37420_i_at) expression, fold change upon IL-13 stimulation: 3.3 fold
  HLA-F (37421_f_at) expression, fold change upon IL-13 stimulation: 2.4 fold
  HLA-F (49203_f_at) expression fold change: 3.4 fold
  HLALS (34427_g_at) expression, fold change upon IL-13 stimulation: 2 fold
  HS3ST1 (41556_s_at) expression fold change upon IL-13 stimulation: 3.8 fold
  HSD17B2 (38178_at) expression fold change upon IL-13 stimulation: 3.1 fold
  HSPA5 (47634_at) expression fold change: 2.7 fold
  HUMRTVLH3 (34702_f_at) expression, fold change upon IL-13 stimulation: 6.1 fold
  Human hbc647 mRNA sequence (34759_at) expression, fold change upon IL-13 stimulation: 2.5 fold
  ICAMt (32640_at) expression fold change upon IL-13 stimulation: 3.1 fold
  IFI27 (425_at) expression, fold change upon IL-13 stimulation: 2.1 fold
  IFI30 (39728_at) expression, fold change upon IL-13 stimulation: 2.1 fold
  IFIT4 (38584_at) expression, fold change upon IL-13 stimulation: 4.6 fold
  IL13RA2 (1016_s_at) expression fold change upon IL-13 stimulation: 4.8 fold
  IRLB (32961_at) expression fold change: 2.5 fold
  ISG15 (1107_s_at) expression, fold change upon IL-13 stimulation: 3 fold
  KIAA0469 (37230_at) expression, fold change upon IL-13 stimulation: 2 fold
  KIAA0537 (33787_at) expression, fold change upon IL-13 stimulation: 8.8 fold
  KIAA1199 (36070_at) expression, fold change upon IL-13 stimulation: 4.3 fold
  KRT16 (601_s_at) expression fold change: 3.6 fold
  LOC57118 (51085_at) expression fold change: 2.2 fold
  LOC64116 (40456_at) expression, fold change upon IL-13 stimulation: 2.8 fold
  LRPAP1 (36194_at) expression, fold change upon IL-13 stimulation: 2.2 fold
  MAT2A (32571_at) expression fold change upon IL-13 stimulation: 2.5 fold
  MDA5 (51920_at) expression fold change: 3.8 fold
  MED6 (35432_at) expression fold change: 2.7 fold
  MET (1609_g_at) expression, fold change upon IL-13 stimulation: 2.6 fold
  MET (1812_s_at) expression, fold change upon IL-13 stimulation: 5 fold
  MET (35684_at) expression, fold change upon IL-13 stimulation: 3.4 fold
  MFHAS1 (50388_at) expression fold change: 2.3 fold
  MICB (35937_at) expression, fold change upon IL-13 stimulation: 3.5 fold
  MKP-L (38272_at) expression, fold change upon IL-13 stimulation: 2.9 fold
  MMP7 (668_s_at) expression, fold change upon IL-13 stimulation: 2.8 fold
  MP1 (34839_at) expression, fold change upon IL-13 stimulation: 2 fold
  MXI (37014_at) expression fold change: 2.9 fold
  NCF2 (41038_at) expression fold change: 4 fold
  NFIL3 (37544_at) expression fold change: 2.5 fold
  NK4 (39119_s_at) expression fold change upon IL-13 stimulation: 6 fold
  NOS2A (1948_f_at) expression fold change upon IL-13 stimulation: 9.4 fold
  NOS2A (48918_at) expression fold change: 8.3 fold
  NTRK1 (36805_s_at) expression, fold change upon IL-13 stimulation: 8.7 fold
  OAF (39695_at) expression, fold change upon IL-13 stimulation: 4.3 fold
  OAS1 (38389_at) expression fold change upon IL-13 stimulation: 2.4 fold
  OSF-2 (1451_s_at) expression fold change upon IL-13 stimulation: 25.4 fold
  PAK2 (1560_g_at) expression, fold change upon IL-13 stimulation: 2.4 fold
  PITPNB (353_at) expression, fold change upon IL-13 stimulation: 2.8 fold
  PITPNB (35017_f_at) expression, fold change upon IL-13 stimulation: 2.3 fold
  PKD2 (38120_at) expression, fold change upon IL-13 stimulation: 2.7 fold
  PLS1 (39951_at) expression fold change: 5.4 fold
  PMCH (32005_at) expression fold change: 11 fold
  PSMB9 (38287_at) expression fold change upon IL-13 stimulation: 2.6 fold
  PVRL2 (50320_g_at) expression fold change: 2.2 fold
  RASGRP1 (33291_at) expression fold change: 2.8 fold
  RIG-1 (59215_at) expression fold change: 2.8 fold
  SECTM1 (41045_at) expression, fold change upon IL-13 stimulation: 4.4 fold
  SERPINB2 (37185_at) expression fold change: 5.3 fold
  SERPINB4 (1549_s_at) expression fold change: 7.8 fold
  SERPINB6 (34789_at) expression fold change: 2 fold
  SIAT1 (41352_at) expression fold change upon IL-13 stimulation: 8.7 fold
  SLC26A4, pendrin (36376_at) expression fold change: 20.1 fold
  SPHK1 (51923_at) expression fold change: 2.1 fold
  SSI-1 (41592_at) expression, fold change upon IL-13 stimulation: 6.1 fold
  STAT1 (32859_at) expression fold change: 2.1 fold
  TGFB2 (1262_s_at) expression fold change upon IL-13 stimulation: 3.2 fold
